Like-named read-outs stand apart in the source and are kept apart here. Peptide text beside a SMILES is read from it.
Tests used:
[1] = test system: Murine Norovirus-1
[2] = test system: Influenza A Virus (H3N2)
[3] = test system: Influenza A Virus (H1N1)
[4] = test system: MDCK cells; settings: dog
[5] = test system: Human Adenovirus-5
[6] = test system: Vero cells; settings: African green monkey
[7] = test system: adenovirus; settings: 111 µM LL-37 ref 60; cited from earlier work
[8] = in vitro; settings: dog
[9] = in vitro; settings: African green monkey
[10] = test system: Influenza A Virus (H1N1); assay: microbe, parasite or virus in culture; settings: H1N1, MDCK, 3 h, read-out: IC50 Influenza A Virus (H1N1)/MDCK
[11] = test system: Influenza A Virus (H3N2); assay: microbe, parasite or virus in culture; settings: H3N2, MDCK, 3 h, read-out: IC50 Influenza A Virus (H3N2)/MDCK
[12] = test system: Murine Norovirus-1; assay: microbe, parasite or virus in culture; settings: Norwalk virus, in Mus musculus, 3 h, read-out: IC50 Murine Norovirus-1/Raw 246.7
[13] = test system: Human Adenovirus-5; assay: microbe, parasite or virus in culture; settings: Human mastadenovirus C, Vero, 3 h, read-out: IC50 Human Adenovirus-5/Vero
[14] = test system: H1N1; assay: Transmission electron microscopy of treated virus; set-up: species or system influenza virus H1N1 A/PR/8/34; settings: TEM, 2 h exposure; untreated 120 nm
Method: (§1) The viruses were exposed to the peptide/mimics for 2 h at 37 °C. Following this, 10 µL of the treated mixture was applied onto a glow-discharged carbon-coated 200 mesh copper grid and left to evaporate for 5 min. Subsequently, the sample was stained with 2% phosphotungstic acid (pH 4.5) for 1 min to enhance contrast. After air-drying, the grids were examined using an FEI Tecnai G2 20 transmission electron microscope (TEM).

[15] = test system: H3N2 virus; assay: Transmission electron microscopy of treated virus; set-up: species or system influenza virus H3N2 A/Hong Kong/8/68; settings: 2 h exposure
Method: as §1

[16] = Circular dichroism conformational analysis; assay type: physicochemical; settings: 125, 250, 500 µM
Method: Circular dichroism (CD) analysis was conducted using the Jasco J-1500 spectropolarimeter to assess the secondary structure of peptides and mimics. The samples were placed in a quartz cuvette with a path length of 0.1 cm (Fisher brand, Thermo Fisher Scientific Aust Pty Ltd.). Spectra were recorded in the range of 185–260 nm at a scan speed of 200 nm/min, averaging 4 scans. The impact of the solvents milliQ water or 30 mM SDS on Mel4 and mimic 758 was evaluated at three concentrations: 500 µM, 250 µM, and 125 µM. Data were averaged, and the spectrum of a sample-free control was subtracted.

[17] = read-out: IC50 Human Adenovirus-5/Vero

NCCCCC(N)C(=O)NCCNC(=O)C(Cc1c[nH]c2ccccc12)NC(=O)c1cc(Br)ccc1NC(=O)c1ccc(-c2ccccc2)cc1 (stereo not drawn) [4-BIPL]
IC50 ([1]; read-out: IC50 Murine Norovirus-1/Raw 246.7): > 62.5 µM | SI Influenza A Virus (H3N2)/MDCK [2]: 1.2 | IC50 ([2]; read-out: IC50 Influenza A Virus (H3N2)/MDCK): 10.4 µM | SI Influenza A Virus (H1N1)/MDCK [3]: 1.2 | IC50 ([3]; read-out: IC50 Influenza A Virus (H1N1)/MDCK): 10.3 µM | CC50 [4]: 12.8 µM | IC50 [5, 17]: > 62.5 µM | CC50 [6]: 38.8 µM

CC[C@H](C)[C@H](NC(=O)[C@H](CCCCN)NC(=O)[C@H](CCC(=O)O)NC(=O)[C@H](CCCCN)NC(=O)[C@H](CO)NC(=O)[C@H](CCCCN)NC(=O)[C@H](CCCNC(=N)N)NC(=O)[C@H](Cc1ccccc1)NC(=O)[C@H](Cc1ccccc1)NC(=O)[C@H](CC(=O)O)NC(=O)CNC(=O)[C@H](CC(C)C)NC(=O)[C@@H](N)CC(C)C)C(=O)NCC(=O)N[C@@H](CCCCN)C(=O)N[C@@H](CCC(=O)O)C(=O)N[C@@H](Cc1ccccc1)C(=O)N[C@@H](CCCCN)C(=O)N[C@@H](CCCNC(=N)N)C(=O)N[C@H](C(=O)N[C@H](C(=O)N[C@@H](CCC(N)=O)C(=O)N[C@@H](CCCNC(=N)N)C(=O)N[C@H](C(=O)N[C@@H](CCCCN)C(=O)N[C@@H](CC(=O)O)C(=O)N[C@@H](Cc1ccccc1)C(=O)N[C@@H](CC(C)C)C(=O)N[C@@H](CCCNC(=N)N)C(=O)N[C@@H](CC(N)=O)C(=O)N[C@@H](CC(C)C)C(=O)N[C@H](C(=O)N1CCC[C@H]1C(=O)N[C@@H](CCCNC(=N)N)C(=O)N[C@H](C(=O)N[C@@H](CCC(=O)O)C(=O)N[C@@H](CO)C(=O)O)[C@@H](C)O)C(C)C)[C@@H](C)CC)C(C)C)[C@@H](C)CC [LL-37, reference compound]
IC50 ([1]; 3 h): 4.2 µM | IC50 ([2]; Virus, 3 h): > 500 µM | IC50 ([3]; Virus, 3 h): > 500 µM | effect on adenovirus [7]: no effect | IC50 Human Adenovirus-5/Vero [5]: no activity | IC50 ([5]; 3 h): > 125 µM

N=C(N)NCCC[C@H](NC(=O)[C@H](CCCNC(=N)N)NC(=O)[C@H](CCCNC(=N)N)NC(=O)[C@H](CCCNC(=N)N)NC(=O)CNC(=O)CNC(=O)[C@H](CCCNC(=N)N)NC(=O)[C@H](CCCNC(=N)N)NC(=O)[C@H](CCCNC(=N)N)NC(=O)[C@H](CCCNC(=N)N)NC(=O)[C@H](CCCNC(=N)N)NC(=O)[C@H](CCCNC(=N)N)NC(=O)[C@H](CCCCN)NC(=O)[C@H](CCCNC(=N)N)NC(=O)[C@H](CCCCN)NC(=O)[C@H](CC(N)=O)NC(=O)[C@@H](N)CCCCN)C(=O)O [Mel4] (H-KNKRKRRRRRRGGRRRR-OH)
IC50 ([1]; 3 h): 8.6 µM | IC50 ([2]; Virus, 3 h): > 500 µM | IC50 ([3]; Virus, 3 h): > 500 µM | CC50 [8]: 12.7 µM | IC50 ([5]; 3 h): 47.4 µM | CC50 at 24 h [9]: 47.6 µM

CC[C@H](C)[C@H](NC(=O)[C@H](Cc1c[nH]c2ccccc12)NC(=O)[C@H](CO)NC(=O)[C@@H](NC(=O)[C@H](CC(C)C)NC(=O)[C@@H](N)[C@@H](C)O)[C@@H](C)CC)C(=O)N[C@@H](CCCCN)C(=O)N[C@@H](CC(N)=O)C(=O)N[C@@H](CCCCN)C(=O)N[C@@H](CCCNC(=N)N)C(=O)N[C@@H](CCCCN)C(=O)N[C@@H](CCC(N)=O)C(=O)N[C@@H](CCCNC(=N)N)C(=O)N1CCC[C@H]1C(=O)N[C@@H](CCCNC(=N)N)C(=O)N[C@H](C(=O)N[C@@H](CO)C(=O)N[C@@H](CCCNC(=N)N)C(=O)N[C@@H](CCCNC(=N)N)C(=O)N[C@@H](CCCNC(=N)N)C(=O)N[C@@H](CCCNC(=N)N)C(=O)N[C@@H](CCCNC(=N)N)C(=O)N[C@@H](CCCNC(=N)N)C(=O)NCC(=O)NCC(=O)N[C@@H](CCCNC(=N)N)C(=O)N[C@@H](CCCNC(=N)N)C(=O)N[C@@H](CCCNC(=N)N)C(=O)N[C@@H](CCCNC(=N)N)C(=O)O)C(C)C [Melimine] (H-TLISWIKNKRKQRPRVSRRRRRRGGRRRR-OH)
IC50 ([1]; 3 h): 4.8 µM | IC50 ([2]; Virus, 3 h): > 500 µM | IC50 ([3]; Virus, 3 h): > 500 µM | CC50 [8]: 28.1 µM | IC50 ([5]; 3 h): > 125 µM | CC50 at 24 h [9]: 14.5 µM

NCCCCC(N)C(=O)NCCNC(=O)C(Cc1c[nH]c2ccccc12)NC(=O)c1cc(Br)ccc1NC(=O)c1ccc2ccccc2c1 (stereo not drawn) [NAPL]
SI Influenza A Virus (H3N2)/MDCK [2]: 10.6 | IC50 [10]: 10.5 µM | SI Influenza A Virus (H1N1)/MDCK [3]: 10.6 | IC50 [11]: 10.5 µM | CC50 ([8]; CC50 (H1N1/MDCK)): 112 µM | CC50 ([8]; CC50 (H3N2/MDCK)): 112 µM | IC50 [12]: > 62.5 µM | IC50 [13]: 59.3 µM

NCCNC(=O)C(Cc1c[nH]c2ccccc12)NC(=O)c1cc(-c2ccccc2-c2ccccc2)ccc1N (stereo not drawn) [Sau-22]
SI Influenza A Virus (H3N2)/MDCK [2]: 14.8 | IC50 [10]: 6.93 µM | SI Influenza A Virus (H1N1)/MDCK [3]: 11.4 | IC50 [11]: 5.34 µM | CC50 ([8]; CC50 (H1N1/MDCK)): 79.4 µM | CC50 ([8]; CC50 (H3N2/MDCK)): 79.4 µM | IC50 [12]: > 62.5 µM | IC50 [13]: > 62.5 µM

NCCNC(=O)C(Cc1c[nH]c2ccccc12)NC(=O)c1cc(-c2ccc3ccccc3c2)ccc1N (stereo not drawn) [compound 610]
SI Influenza A Virus (H3N2)/MDCK [2]: 9 | IC50 [10]: 2.35 µM | SI Influenza A Virus (H1N1)/MDCK [3]: 14.1 | IC50 [11]: 3.7 µM | CC50 ([8]; CC50 (H1N1/MDCK)): 33.3 µM | CC50 ([8]; CC50 (H3N2/MDCK)): 33.3 µM | IC50 [12]: > 62.5 µM | IC50 [13]: > 62.5 µM | average particle size of the virus after treatment [14]: 48 nm | effect on virus particle (TEM) [15]: reduction in size and disruption to the envelop and spike proteins

NCCNC(=Nc1ccccc1)NCCNC(=O)C(Cc1c[nH]c2ccccc12)NC(=O)c1cc(Br)ccc1NC(=O)c1ccc2ccccc2c1 (stereo not drawn) [compound 758]
SI Influenza A Virus (H3N2)/MDCK [2]: 15.8 | IC50 [10]: 12.3 µM | SI Influenza A Virus (H1N1)/MDCK [3]: 11.9 | IC50 [11]: 9.3 µM | CC50 ([8]; CC50 (H1N1/MDCK)): 147 µM | CC50 ([8]; CC50 (H3N2/MDCK)): 147 µM | IC50 [12]: > 62.5 µM | IC50 [13]: > 62.5 µM | secondary structure by CD in SDS ([16]; 30 mM SDS (membrane mimetic)): beta sheet-like structure | secondary structure by CD in water ([16]; milliQ water): beta sheet-like structure

NCCN=C(NCCN)NCCNC(=O)C(Cc1c[nH]c2ccccc12)NC(=O)c1cc(Br)ccc1NC(=O)c1ccc2ccccc2c1 (stereo not drawn) [compound 1083]
SI Influenza A Virus (H3N2)/MDCK [2]: 9.05 | IC50 [10]: 28.5 µM | SI Influenza A Virus (H1N1)/MDCK [3]: 8.7 | IC50 [11]: 27.7 µM | CC50 ([8]; CC50 (H1N1/MDCK)): 250 µM | CC50 ([8]; CC50 (H3N2/MDCK)): 250 µM | IC50 [5, 17]: 45.1 µM | IC50 [12]: > 62.5 µM | IC50 [13]: 47.2 µM

N=C(N)NCCNC(=O)C(Cc1ccccc1)NC(=O)c1cc(Br)ccc1NC(=O)c1ccc2ccccc2c1 (stereo not drawn) [compound 1091]
SI Influenza A Virus (H3N2)/MDCK [2]: 5.2 | IC50 [10]: 23.1 µM | SI Influenza A Virus (H1N1)/MDCK [3]: 5.5 | IC50 [11]: 24.3 µM | CC50 ([8]; CC50 (H1N1/MDCK)): 128 µM | CC50 ([8]; CC50 (H3N2/MDCK)): 128 µM | IC50 [12]: > 62.5 µM | IC50 [13]: > 62.5 µM

NCCNC(=Nc1ccccc1)NCCNC(=O)C(Cc1ccccc1)NC(=O)c1cc(Br)ccc1NC(=O)c1ccc2ccccc2c1 (stereo not drawn) [compound 1096]
SI Influenza A Virus (H3N2)/MDCK [2]: 1.9 | IC50 [10]: 22.2 µM | SI Influenza A Virus (H1N1)/MDCK [3]: 2.1 | IC50 [11]: 24 µM | CC50 ([8]; CC50 (H1N1/MDCK)): 47.2 µM | CC50 ([8]; CC50 (H3N2/MDCK)): 47.2 µM | IC50 [12]: > 62.5 µM | IC50 [13]: > 62.5 µM

— paper PMC11240954 (International Journal of Molecular Sciences, 2024)
